Where a name gives a salt, the structure may show the parent alone. Read-outs that look alike come from different tables or passages of the source.
What was measured:
[1] = test system: Phosphorylated Ribosomal Protein S6 (RPS6); experiment: THP-1 RPS6 ELISA Assay; format: cell-based, Human; details: THP-1 cells, read-out: PI3Kγ_THP1_RPS6_ELISA IC50
In short: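 IC50 values come from a curve of percent inhibition against log compound concentration, using phospho-RPS6 ELISA (450 nm) on THP-1 lysates. Cells were serum-starved overnight, exposed to compound for 2 h at 37 °C, then challenged 15 min with 10 nM MCP-1.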

[2] = target: PI3Kγ (p110γ) Recombinant Human Protein (Homo sapiens (Human), UniProt P48736); experiment: PI3K-γ Scintillation Proximity Assay; format: biochemical; details: read-out: PI3Kγ IC50
PI3Kγ (p110γ) Recombinant Human Protein, sequence (P48736 whole entry): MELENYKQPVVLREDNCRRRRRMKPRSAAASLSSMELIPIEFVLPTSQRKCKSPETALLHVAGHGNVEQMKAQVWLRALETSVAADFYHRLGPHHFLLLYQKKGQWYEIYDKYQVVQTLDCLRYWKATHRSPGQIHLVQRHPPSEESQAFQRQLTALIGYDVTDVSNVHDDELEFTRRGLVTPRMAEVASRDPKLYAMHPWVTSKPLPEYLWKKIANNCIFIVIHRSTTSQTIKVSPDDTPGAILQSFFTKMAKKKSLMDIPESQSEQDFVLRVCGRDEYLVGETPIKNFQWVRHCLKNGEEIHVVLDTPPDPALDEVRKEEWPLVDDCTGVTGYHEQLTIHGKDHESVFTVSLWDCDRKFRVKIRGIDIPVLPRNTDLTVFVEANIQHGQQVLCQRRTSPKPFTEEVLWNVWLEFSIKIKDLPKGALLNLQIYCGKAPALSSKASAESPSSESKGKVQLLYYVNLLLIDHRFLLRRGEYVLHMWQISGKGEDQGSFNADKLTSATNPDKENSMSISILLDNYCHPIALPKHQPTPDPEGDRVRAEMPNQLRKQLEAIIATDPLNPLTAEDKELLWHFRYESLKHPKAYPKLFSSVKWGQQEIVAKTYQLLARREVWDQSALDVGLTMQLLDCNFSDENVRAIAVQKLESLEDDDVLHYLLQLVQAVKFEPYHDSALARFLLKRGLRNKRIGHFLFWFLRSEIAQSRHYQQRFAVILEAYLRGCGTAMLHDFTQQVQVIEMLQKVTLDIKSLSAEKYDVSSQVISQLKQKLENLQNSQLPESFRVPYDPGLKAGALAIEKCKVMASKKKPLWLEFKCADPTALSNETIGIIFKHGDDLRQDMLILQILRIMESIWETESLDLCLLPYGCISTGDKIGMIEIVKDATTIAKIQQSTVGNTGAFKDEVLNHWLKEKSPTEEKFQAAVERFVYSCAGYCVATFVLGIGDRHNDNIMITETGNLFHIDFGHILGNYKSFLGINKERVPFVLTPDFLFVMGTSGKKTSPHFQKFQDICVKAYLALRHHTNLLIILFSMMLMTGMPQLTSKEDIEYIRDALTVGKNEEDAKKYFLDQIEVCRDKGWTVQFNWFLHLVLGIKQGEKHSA
In short: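 Radiometric SPA readout: […] bound to WGA beads after overnight shaking, IC50 derived from % activity of DMSO control. Reaction used human p110γ, 2 μM ATP, 20 μM PIP2, pH 6.7 MOPS buffer with MgCl2, DTT, CHAPS, 2% DMSO, room temperature.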

[3] = target: PI3Kδ (p110δ/p85α) Recombinant Human Protein (Homo sapiens (Human), UniProt O00329); experiment: PI3Kδ Scintillation Proximity Assay; format: biochemical
PI3Kδ (p110δ/p85α) Recombinant Human Protein, sequence (O00329 whole entry): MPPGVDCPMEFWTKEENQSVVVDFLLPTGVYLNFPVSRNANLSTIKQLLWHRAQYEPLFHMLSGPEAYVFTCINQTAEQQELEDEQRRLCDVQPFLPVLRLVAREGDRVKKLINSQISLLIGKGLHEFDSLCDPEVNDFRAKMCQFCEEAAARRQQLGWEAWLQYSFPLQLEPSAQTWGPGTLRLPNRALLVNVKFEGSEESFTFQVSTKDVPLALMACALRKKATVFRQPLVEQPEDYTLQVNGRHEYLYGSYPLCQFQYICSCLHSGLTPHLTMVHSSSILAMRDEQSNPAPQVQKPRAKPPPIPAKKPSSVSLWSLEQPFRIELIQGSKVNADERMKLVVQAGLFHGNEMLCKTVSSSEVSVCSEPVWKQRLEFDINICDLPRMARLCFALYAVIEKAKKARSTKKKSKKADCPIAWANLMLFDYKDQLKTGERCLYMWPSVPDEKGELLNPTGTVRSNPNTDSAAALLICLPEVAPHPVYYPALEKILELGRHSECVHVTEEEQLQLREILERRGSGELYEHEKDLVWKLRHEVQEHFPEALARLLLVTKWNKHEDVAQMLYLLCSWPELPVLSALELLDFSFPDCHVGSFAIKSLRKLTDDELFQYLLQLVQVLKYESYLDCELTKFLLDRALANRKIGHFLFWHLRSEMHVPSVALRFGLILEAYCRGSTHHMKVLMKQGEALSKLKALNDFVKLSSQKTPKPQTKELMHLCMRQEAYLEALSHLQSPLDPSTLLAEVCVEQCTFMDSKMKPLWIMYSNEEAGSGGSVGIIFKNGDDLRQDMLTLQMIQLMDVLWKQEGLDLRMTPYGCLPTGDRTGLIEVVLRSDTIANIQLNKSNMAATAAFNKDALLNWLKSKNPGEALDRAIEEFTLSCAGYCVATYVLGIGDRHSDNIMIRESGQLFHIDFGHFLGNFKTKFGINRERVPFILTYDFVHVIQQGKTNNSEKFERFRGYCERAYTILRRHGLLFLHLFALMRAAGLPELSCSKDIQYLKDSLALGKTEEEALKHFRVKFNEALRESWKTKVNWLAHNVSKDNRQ
PI3Kδ (p110δ/p85α) Recombinant Human Protein, sequence (P27986 whole entry partner): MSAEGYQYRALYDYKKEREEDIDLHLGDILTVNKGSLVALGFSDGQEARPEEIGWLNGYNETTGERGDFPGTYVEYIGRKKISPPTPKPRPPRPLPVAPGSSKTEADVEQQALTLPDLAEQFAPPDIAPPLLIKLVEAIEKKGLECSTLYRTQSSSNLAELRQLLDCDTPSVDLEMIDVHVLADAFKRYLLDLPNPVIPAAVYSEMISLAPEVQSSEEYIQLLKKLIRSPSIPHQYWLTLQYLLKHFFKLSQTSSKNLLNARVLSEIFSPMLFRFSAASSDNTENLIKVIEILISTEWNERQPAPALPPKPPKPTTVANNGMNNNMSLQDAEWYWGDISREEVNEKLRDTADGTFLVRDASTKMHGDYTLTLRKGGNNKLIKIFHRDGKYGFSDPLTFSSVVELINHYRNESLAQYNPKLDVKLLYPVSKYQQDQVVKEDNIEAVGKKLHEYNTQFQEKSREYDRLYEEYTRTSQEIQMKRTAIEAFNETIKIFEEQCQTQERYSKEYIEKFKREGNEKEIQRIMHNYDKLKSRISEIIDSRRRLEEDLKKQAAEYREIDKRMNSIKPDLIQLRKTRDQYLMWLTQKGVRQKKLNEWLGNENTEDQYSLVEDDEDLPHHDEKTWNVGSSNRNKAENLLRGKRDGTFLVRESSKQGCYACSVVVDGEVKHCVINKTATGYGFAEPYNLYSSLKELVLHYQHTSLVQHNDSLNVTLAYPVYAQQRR
In short: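 IC50 was fitted to percent solvent-control activity from SPA scintillation counts after WGA bead capture of 33P-labelled lipid product. Reaction: 120 min, room temperature, 3.4 nM p110δ/p85α, 20 μM PIP2, 2 μM ATP with tracer, MOPS pH 6.7 buffer containing MgCl2, DTT, CHAPS, 2% DMSO.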

Row | Compound | IC50 ([1]; Homo sapiens) | IC50 [2] | IC50 [3] | IC50 [1]
1 | Cc1ccc(S(=O)(=O)NCCN2CCCC2=O)cc1-c1cnc2c(N)ncnn12 [Example 138, 3-(4-aminoimidazo[2,1-f][1,2,4]triazin-7-yl)-4-methyl-N-(2-(2-oxopyrrolidin-1-yl)ethyl)benzenesulfonamide] | > 1000 nM | < 100 nM | 500 to 2000 nM | –
2 | Cc1ccc(S(=O)(=O)N2CCCC(C(=O)O)C2)cc1-c1cnc2c(N)nc(C(F)(F)F)cn12 (stereo not drawn) [Example 510, 1-((3-(8-Amino-6-(trifluoromethyl)imidazo[1,2-a]pyrazin-3-yl)-4-methylphenyl)sulfonyl)piperidine-3-carboxylic acid trifluoroacetate] | > 1000 nM | < 100 nM | 100 to 500 nM | –
3 | Cc1ccc(S(C)(=O)=O)cc1-c1cnc2c(N)nc(-c3ccc(N)nc3)cn12 [Example 482, 6-(6-Aminopyridin-3-yl)-3-(2-methyl-5-(methylsulfonyl)phenyl)imidazo[1,2-a]pyrazin-8-amine trifluoroacetate] | > 1000 nM | < 100 nM | 500 to 2000 nM | –
4 | Cc1ccc(S(=O)(=O)N(CCC#N)CCCO)cc1-c1cnc2c(N)ncnn12 [Example 175, 3-(4-aminoimidazo[2,1-f][1,2,4]triazin-7-yl)-N-(2-cyanoethyl)-N-(3-hydroxypropyl)-4-methylbenzenesulfonamide] | 100 to 500 nM | < 100 nM | 100 to 500 nM | –
5 | Cc1ccc(S(=O)(=O)NC23CCC(CN4CC(F)(F)C4)(CC2)OC3)cc1-c1cnc2c(N)ncnn12 [Example 435, 3-(4-Aminoimidazo[1,2-f][1,2,4]triazin-7-yl)-N-(1-((3,3-difluoroazetidin-1-yl)methyl)-2-oxabicyclo[2.2.2]octan-4-yl)-4-methylbenzenesulfonamide trifluoroacetate salt] | 500 to 1000 nM | < 100 nM | 100 to 500 nM | –
6 | Cc1ccc(S(=O)(=O)NC23CCC(C#N)(C2)C3)cc1-c1cnc2c(N)nc(C(F)(F)F)cn12 [Example 281, 3-(8-Amino-6-(trifluoromethyl)imidazo[1,2-a]pyrazin-3-yl)-N-(4-cyanobicyclo[2.1.1]hexan-1-yl)-4-methylbenzenesulfonamide trifluoroacetate salt] | 100 to 500 nM | < 100 nM | 100 to 500 nM | –
7 | Cc1ccc(S(=O)(=O)NC2CCC(F)(F)CC2)cc1-c1cnc2c(N)ncnn12 [Example 122, 3-(4-aminoimidazo[2,1-f][1,2,4]triazin-7-yl)-N-(4,4-difluorocyclohexyl)-4-methylbenzenesulfonamide] | 100 to 500 nM | < 100 nM | 500 to 2000 nM | –
8 | Cc1ccc(S(=O)(=O)N2CCC3(CCCOC3)C2)cc1-c1cnc2c(N)ncnn12 (stereo not drawn) [Example 203, 7-(5-((7-Oxa-2-azaspiro[4.5]decan-2-yl)sulfonyl)-2-methylphenyl)imidazo[2,1-f][1,2,4]triazin-4-amine] | 500 to 1000 nM | < 100 nM | 100 to 500 nM | –
9 | Cc1ccc(S(=O)(=O)NC23COC(C)(C2)C3)cc1-c1cnc2c(N)nc(C(F)(F)F)cn12 [Example 425, 3-(8-Amino-6-(trifluoromethyl)imidazo[1,2-a]pyrazin-3-yl)-4-methyl-N-(1-methyl-2-oxabicyclo[2.1.1]hexan-4-yl)benzenesulfonamide trifluoroacetate salt] | < 100 nM | < 100 nM | 100 to 500 nM | –
10 | Cc1ccc(S(=O)(=O)NC23CC(c4cnco4)(C2)C3)cc1-c1cnc2c(N)nc(C(F)(F)F)cn12 [Example 279, 3-(8-Amino-6-(trifluoromethyl)imidazo[1,2-a]pyrazin-3-yl)-4-methyl-N-(3-(oxazol-5-yl)bicyclo[1.1.1]pentan-1-yl)benzenesulfonamide trifluoroacetate salt] | < 100 nM | < 100 nM | < 100 nM | –
11 | Cc1ccc(S(=O)(=O)CC(C)O)cc1-c1cnc2c(N)nc(C(F)(F)F)cn12 (stereo not drawn) [Example 496, 1-((3-(8-Amino-6-(trifluoromethyl)imidazo[1,2-a]pyrazin-3-yl)-4-methylphenyl)sulfonyl)propan-2-ol trifluoroacetate] | 500 to 1000 nM | < 100 nM | 500 to 2000 nM | –
12 | COc1cccc(-c2cn3c(-c4cc(S(=O)(=O)N[C@H]5CC[C@H](O)CC5)ccc4C)cnc3c(N)n2)c1F [Example 30, 3-[8-Amino-6-(2-fluoro-3-methoxyphenyl)imidazo[1,2-a]pyrazin-3-yl]-N-(trans-4-hydroxycyclohexyl)-4-methylbenzenesulfonamide] | < 100 nM | < 100 nM | < 100 nM | –
13 | Cc1ccc(S(C)(=O)=O)cc1-c1cnc2c(N)nc(-c3ccncc3F)cn12 [Example 476, 6-(3-Fluoropyridin-4-yl)-3-(2-methyl-5-(methylsulfonyl)phenyl)imidazo[1,2-a]pyrazin-8-amine trifluoroacetate] | 100 to 500 nM | < 100 nM | 100 to 500 nM | –
14 | Cc1ccc(S(=O)(=O)N(CCC#N)C2CCCC2)cc1-c1cnc2c(N)ncnn12 [Example 165, 3-(4-aminoimidazo[2,1-f][1,2,4]triazin-7-yl)-N-(2-cyanoethyl)-N-cyclopentyl-4-methylbenzenesulfonamide] | 500 to 1000 nM | < 100 nM | 100 to 500 nM | –
15 | Cc1ccc(S(=O)(=O)NC2CC(F)(F)C2)cc1-c1cnc2c(N)nc(C(=O)NC3CCC3)cn12 [Example 448, 8-amino-N-cyclobutyl-3-(5-(N-(3,3-difluorocyclobutyl)sulfamoyl)-2-methylphenyl)imidazo[1,2-a]pyrazine-6-carboxamide trifluoroacetate salt] | 100 to 500 nM | < 100 nM | 500 to 2000 nM | –
16 | Cc1ccc(S(=O)(=O)N2CCC3(CCOCC3)C2C)cc1-c1cnc2c(N)ncnn12 (stereo not drawn) [Example 206, 7-(2-Methyl-5-((1-methyl-8-oxa-2-azaspiro[4.5]decan-2-yl)sulfonyl)phenyl)imidazo[2,1-f][1,2,4]triazin-4-amine] | > 1000 nM | < 100 nM | 500 to 2000 nM | –

The remaining lines, values ahead:

Row | IC50 ([1]; Homo sapiens) | IC50 [2] | IC50 [3] | IC50 [1] | Compound
17 | > 1000 nM | < 100 nM | < 100 nM | – | Nc1nc(C(F)(F)F)cn2c(-c3ccc(Cl)c(S(=O)(=O)NC45CCC(CO)(C4)C5)c3)cnc12 [Example 399, 5-(8-Amino-6-(trifluoromethyl)imidazo[1,2-a]pyrazin-3-yl)-2-chloro-N-(4-(hydroxymethyl)bicyclo[2.1.1]hexan-1-yl)benzenesulfonamide trifluoroacetate salt]
18 | 100 to 500 nM | < 100 nM | 500 to 2000 nM | – | Cc1ccc(S(=O)(=O)NCC2(F)CCOCC2)cc1-c1cnc2c(N)ncnn12 [Example 134, 3-(4-aminoimidazo[2,1-f][1,2,4]triazin-7-yl)-N-((4-fluorotetrahydro-2H-pyran-4-yl)methyl)-4-methylbenzenesulfonamide]
19 | < 100 nM | < 100 nM | 100 to 500 nM | – | Cc1ccc(S(=O)(=O)NC23CC(CF)(C2)C3)cc1-c1cnc2c(N)nc(C(F)(F)F)cn12 [Example 286, 3-(8-Amino-6-(trifluoromethyl)imidazo[1,2-a]pyrazin-3-yl)-N-(3-(fluoromethyl)bicyclo[1.1.1]pentan-1-yl)-4-methylbenzenesulfonamide trifluoroacetate salt]
20 | < 100 nM | < 100 nM | < 100 nM | – | Cc1ccc(S(=O)(=O)N[C@H]2CC[C@H](O)CC2)cc1-c1cnc2c(N)nc(-c3ccc(CO)cc3F)cn12 [Example 32, 3-{8-Amino-6-[2-fluoro-4-(hydroxymethyl)phenyl]imidazo[1,2-a]pyrazin-3-yl}-N-(trans-4-hydroxycyclohexyl)-4-methylbenzenesulfonamide]
21 | > 1000 nM | < 100 nM | 100 to 500 nM | – | CNC(=O)c1cn2c(-c3cc(S(=O)(=O)N[C@H]4CC[C@H](CC#N)OC4)ccc3C)cnc2c(N)n1 [Example 449, 8-Amino-3-(5-(N-((3S,6R)-6-(cyanomethyl)tetrahydro-2H-pyran-3-yl)sulfamoyl)-2-methylphenyl)-N-methylimidazo[1,2-a]pyrazine-6-carboxamide trifluoroacetate salt]
22 | – | < 100 nM | 100 to 500 nM | 100 to 500 nM | Cc1ccc(S(=O)(=O)NC23CCC(CC2)C3)cc1-c1cnc2c(N)ncnn12 [Example 180, 3-(4-aminoimidazo[1,2-f][1,2,4]triazin-7-yl)-N-(bicyclo[2.2.1]heptan-1-yl)-4-methylbenzenesulfonamide trifluoroacetate salt]
23 | – | < 100 nM | 500 to 2000 nM | > 1000 nM | Cc1ccc(S(=O)(=O)NC23CC(C2)C3)cc1-c1cnc2c(N)ncnn12 [Example 106, 3-(4-Aminoimidazo[1,2-f][1,2,4]triazin-7-yl)-N-(bicyclo[1.1.1]pentan-1-yl)-4-methylbenzenesulfonamide trifluoroacetate salt]
24 | > 1000 nM | < 100 nM | 100 to 500 nM | – | Cc1ccc(S(=O)(=O)N[C@H]2CC[C@H](O)CC2)cc1-c1cnc2c(N)cc(-c3ccnn3C)cn12 [Example 10, 3-[8-Amino-6-(1-methyl-1H-pyrazol-5-yl)imidazo[1,2-a]pyridin-3-yl]-N-(trans-4-hydroxycyclohexyl)-4-methylbenzenesulfonamide bis(trifluoroacetate)]

From patent publication US10479795B2 (Incyte Corporation, priority 2016, dated 2019)
